Reference: ChEMBL document CHEMBL1123796, “New antitumor agents containing the anthracene nucleus” (1987)
pIC50: −log10 of the molar value.

How the values were obtained:
Assay type in all cases: functional
L1210 [1] = test: Effect on RNA synthesis was determined by incorporation of radioligand into L1210 murine leukemia at a concentration of 10 ug/mL (*: >1 log cell kill); conditions: Mus musculus
Mus musculus [2] = test: Tested for skin toxicity in BALB/c mice at a significant dose of 0.75 mg/kg administered intraintradermally and involved concentric circular areas of ulceration
Mus musculus [3] = test: Tested for percent average weekly weight change in mice at a significant dose of 30 mg/kg administered intraperitoneally; conditions: route intraperitoneal
P388 [4] = test: Antileukemic activity against P-388 in mice at a dose of 70 mg/kg administered intraperitoneally after 5 day treatment; conditions: Mus musculus, P388, ip, 120 h, route intraperitoneal
Mus musculus [5] = test: Tested for skin toxicity in BALB/c mice at a significant dose of 1.25 mg/kg administered intraintradermally and involved concentric circular areas of induration.
RPMI-8226 [6] = test: Effect on protein synthesis was determined by incorporation of radioligand into 8226 human myeloma cells at a concentration of 0.01 ug/mL
RPMI-8226 [7] = test: Effect on DNA synthesis was determined by incorporation of radioligand into 8226 human myeloma cells at a concentration of 0.01 ug/mL
L1210 [8] = test: Antileukemic activity against L-1210 cells in mice at a dose of 60 mg/kg administered intraperitoneally after 5 day treatment; conditions: Mus musculus, L1210, ip, 120 h, route intraperitoneal
L1210 [9] = test: Effect on protein synthesis was determined by incorporation of radioligand into L1210 murine leukemia at a concentration of 1 ug/mL. (*: >1 log cell kill); conditions: Mus musculus
Mus musculus [10] = test: Tested for skin toxicity in BALB/c mice at a significant dose of 1.25 mg/kg administered intraintradermally and involved concentric circular areas of erythema
L1210 [11] = test: Effect on RNA synthesis was determined by incorporation of radioligand into L1210 murine leukemia at a concentration of 0.01 ug/mL; conditions: Mus musculus
P388 [12] = test: Antileukemic activity against P-388 in mice at a dose of 70 mg/kg administered intraperitoneally after 1 day treatment; conditions: Mus musculus, P388, ip, 24 h, route intraperitoneal
P388 [13] = test: Antileukemic activity against P-388 in mice at a dose of 80 mg/kg administered intraperitoneally after 1 day treatment; conditions: Mus musculus, P388, ip, 24 h, route intraperitoneal
L1210 [14] = test: Effect on RNA synthesis was determined by incorporation of radioligand into L1210 murine leukemia at a concentration of 0.5 ug/mL. (*: >1 log cell kill); conditions: Mus musculus
RPMI-8226 [15] = test: Effect on RNA synthesis was determined by incorporation of radioligand into 8226 human myeloma cells at a concentration of 1 ug/mL. (*: >1 log cell kill)
RPMI-8226 [16] = test: Effect on DNA synthesis was determined by incorporation of radioligand into 8226 human myeloma cells at a concentration of 10 ug/mL (*: >1 log cell kill)
Mus musculus [17] = test: Tested for percent average weekly weight change in mice at a significant dose of 100 mg/kg administered intraperitoneally in mice after 5 days of treatment; conditions: route intraperitoneal
L1210 [18] = test: Antileukemic activity against L-1210 cells in mice at a dose of 80 mg/kg administered intraperitoneally after 1 day treatment; conditions: Mus musculus, L1210, ip, 24 h, route intraperitoneal
P388 [19] = test: Antileukemic activity against P-388 in mice at a dose of 60 mg/kg administered intraperitoneally after 5 day treatment; conditions: Mus musculus, P388, ip, 120 h, route intraperitoneal
L1210 [20] = test: Antileukemic activity against L-1210 cells in mice at a dose of 70 mg/kg administered intraperitoneally after 5 day treatment; conditions: Mus musculus, L1210, ip, 120 h, route intraperitoneal
L1210 [21] = test: Antileukemic activity against L-1210 cells in mice at a dose of 37.5 mg/kg administered intraperitoneally after 5 day treatment; conditions: Mus musculus, L1210, ip, 120 h, route intraperitoneal
RPMI-8226 [22] = test: Effect on RNA synthesis was determined by incorporation of radioligand into 8226 human myeloma cells at a concentration of 0.3 ug/mL (*: >50% cell kill)
L1210 [23] = test: Antileukemic activity against L-1210 cells in mice at a dose of 30 mg/kg administered intraperitoneally after 5 day treatment; conditions: Mus musculus, L1210, ip, 120 h, route intraperitoneal
[24] = Tested in vitro for inhibitory activity of human tumor cell growth against HEC 1A endometrial tumor, by using clonogenic assays.; conditions: read-out: ID50 (the source's name)
L1210 [25] = test: Effect on protein synthesis was determined by incorporation of radioligand into L1210 murine leukemia at a concentration of 0.01 ug/mL; conditions: Mus musculus
Mus musculus [26] = test: Tested for skin toxicity in BALB/c mice at a significant dose of 0.75 mg/kg administered intraintradermally and involved concentric circular areas of induration.
Mus musculus [27] = test: Tested for high-dose toxicity in mice at a significant dose of 37.5 mg/kg administered intraperitoneally after 5 days of treatment; conditions: route intraperitoneal
Mus musculus [28] = test: Tested for percent average weekly weight change in mice at a significant dose of 45 mg/kg administered intraperitoneally after 5 days of treatment; conditions: route intraperitoneal
L1210 [29] = test: Effect on RNA synthesis was determined by incorporation of radioligand into L1210 murine leukemia at a concentration of 0.3 ug/mL (*: >50% cell kill); conditions: Mus musculus
Mus musculus [30] = test: Tested for percent average weekly weight change in mice at a significant dose of 37.5 mg/kg administered intraperitoneally after 5 days of treatment; conditions: route intraperitoneal
L1210 [31] = test: Effect on protein synthesis was determined by incorporation of radioligand into L1210 murine leukemia at a concentration of 0.3 ug/mL (*: >50% cell kill); conditions: Mus musculus
L1210 [32] = test: Effect on RNA synthesis was determined by incorporation of radioligand into L1210 murine leukemia at a concentration of 1 ug/mL. (*: >1 log cell kill); conditions: Mus musculus
RPMI-8226 [33] = test: Effect on protein synthesis was determined by incorporation of radioligand into 8226 human myeloma cells at a concentration of 1 ug/mL. (*: >1 log cell kill)
P388 [34] = test: Antileukemic activity against P-388 in mice at a dose of 100 mg/kg administered intraperitoneally after 1 day treatment; conditions: Mus musculus, P388, ip, 24 h, route intraperitoneal
Mus musculus [35] = test: Tested for skin toxicity in BALB/c mice at a significant dose of 0.25 mg/kg administered intraintradermally and involved concentric circular areas of erythema
Mus musculus [36] = test: Tested for high-dose toxicity in mice at a significant dose of 60 mg/kg administered intraperitoneally after 5 days of treatment; conditions: route intraperitoneal
Mus musculus [37] = test: Tested for skin toxicity in BALB/c mice at a significant dose of 0.25 mg/kg administered intraintradermally and involved concentric circular areas of induration.
L1210 [38] = test: Antileukemic activity against L-1210 cells in mice at a dose of 90 mg/kg administered intraperitoneally after 1 day treatment; conditions: Mus musculus, L1210, ip, 24 h, route intraperitoneal
L1210 [39] = test: Antileukemic activity against L-1210 cells in mice at a dose of 70 mg/kg administered intraperitoneally after 1 day treatment; conditions: Mus musculus, L1210, ip, 24 h, route intraperitoneal
RPMI-8226 [40] = test: In vitro inhibition of human 8226 myeloma tumor cell line growth.; conditions: read-out: ID50 (the source's name)
P388 [41] = test: Antileukemic activity against P-388 in mice at a dose of 80 mg/kg administered intraperitoneally after 5 day treatment; conditions: Mus musculus, P388, ip, 120 h, route intraperitoneal
Mus musculus [42] = test: Tested for high-dose toxicity in mice at a significant dose of 100 mg/kg administered intraperitoneally after 1 days of treatment; conditions: route intraperitoneal

CN(C)CCNCc1c2ccccc2c(CNCCN(C)C)c2ccccc12
inhibition at 10 µg/mL (L1210 [1]): 96.3% | Extent of skin lesions (Mus musculus [2]): 1 cm**2 | Average weekly weight change (Mus musculus [3]): -3% | ILS at 70 mg/kg (P388 [4]): 10% | Extent of skin lesions (Mus musculus [5]): 4.3 cm**2 | inhibition at 0.01 µg/mL (RPMI-8226 [6]): 67.5% | inhibition at 0.01 µg/mL (RPMI-8226 [7]): 0% | ILS at 60 mg/kg (L1210 [8]): 27% | inhibition at 1 µg/mL (L1210 [9]): 31.2% | Extent of skin lesions (Mus musculus [10]): 2.2 cm**2 | inhibition at 0.01 µg/mL (L1210 [11]): 0% | ILS at 70 mg/kg (P388 [12]): 27% | ILS at 80 mg/kg (P388 [13]): 36% | inhibition at 0.5 µg/mL (L1210 [14]): 7.2% | inhibition at 1 µg/mL (RPMI-8226 [15]): 70.4% | inhibition at 10 µg/mL (RPMI-8226 [16]): 82.2% | Average weekly weight change (Mus musculus [17]): -15% | ILS at 80 mg/kg (L1210 [18]): 14% | ILS at 60 mg/kg (P388 [19]): 25% | ILS at 70 mg/kg (L1210 [20]): 30% | ILS at 37.5 mg/kg (L1210 [21]): 11% | inhibition at 0.3 µg/mL (RPMI-8226 [22]): 0% | ILS at 30 mg/kg (L1210 [23]): 5% | pIC50 [24]: 6.44 | inhibition at 0.01 µg/mL (L1210 [25]): 0% | Extent of skin lesions (Mus musculus [26]): 1.7 cm**2 | Lethality (Mus musculus [27]): 20% | Median day of death (Mus musculus [27]): 2 | Average weekly weight change (Mus musculus [28]): -12% | inhibition at 0.3 µg/mL (L1210 [29]): 0% | Average weekly weight change (Mus musculus [30]): -7% | inhibition at 0.3 µg/mL (L1210 [31]): 9.8% | inhibition at 1 µg/mL (L1210 [32]): 6.9% | inhibition at 1 µg/mL (RPMI-8226 [33]): 45.9% | ILS at 100 mg/kg (P388 [34]): -33% | Extent of skin lesions (Mus musculus [35]): 0.3 cm**2 | Lethality (Mus musculus [36]): 0% | Extent of skin lesions (Mus musculus [37]): 0.7 cm**2 | ILS at 90 mg/kg (L1210 [38]): 3% | ILS at 70 mg/kg (L1210 [39]): 40% | pIC50 (RPMI-8226 [40]): 6.80 | ILS at 80 mg/kg (P388 [41]): 0% | Lethality (Mus musculus [42]): 60% | Median day of death (Mus musculus [42]): 0
